Laboratory results: US8143275B2, “Use of triazolopyrimidine derivatives as microbicides” (LANXESS Deutschland GmbH, priority 2001, dated 2012)

Assays:
Assay in all cases: Inhibitory test with giant colonies of Basidiomycetes
Type in all cases: cell-based
Conditions in all cases: 6 ppm active compound in agar medium, 26° C., compared to medium without active compound
[1] = test system: Coniophora puteana (P2)
Experimental: (§1) Inhibitory test with giant colonies of Basidiomycetes
(§2) Mycelium pieces were punched out of colonies of Gloeophyllum trabeum (P1), Coniophora puteana (P2), Poria placenta (P3), Lentinus tigrinus (P4), Coriolus versicolor (P5) and Sterum sanguinolentum (P6) and incubated at 26° C. on an agar medium. The inhibition of the growth of the fungal threads on the active-compound-containing medium (concentration of active compound: 6 ppm) was compared to the longitudinal growth of medium without added active compound and rated in inhibition percent.

[2] = test system: Coriolus versicolor (P5)
Experimental: as §1, §2

[3] = test system: Gloeophyllum trabeum (P1)
Experimental: as §1, §2

[4] = test system: Lentinus tigrinus (P4)
Experimental: as §1, §2

[5] = test system: Sterum sanguinolentum (P6)
Experimental: as §1, §2

[6] = test system: Poria placenta (P3)
Experimental: as §1, §2

| SMILES | P2: inhibition of the growth of the fungal threads [1] [%] | P5: inhibition of the growth of the fungal threads [2] [%] | P1: inhibition of the growth of the fungal threads [3] [%] | P4: inhibition of the growth of the fungal threads [4] [%] | P6: inhibition of the growth of the fungal threads [5] [%] | P3: inhibition of the growth of the fungal threads [6] [%] |
| --- | --- | --- | --- | --- | --- | --- |
| Fc1cccc(-c2c(Cl)nc3ncnn3c2NC2CCCC2)c1 [No 1] | 100 | 91 | 80 | – | – | – |
| Clc1ccccc1-c1c(Cl)nc2ncnn2c1NC1CCCC1 [No 2] | 100 | 100 | 100 | 94 | 100 | – |
| Fc1cccc(F)c1-c1c(Cl)nc2ncnn2c1NC1CCCC1 [No 3] | 100 | 100 | 100 | 100 | 100 | – |
| Fc1cc(F)c(-c2c(Cl)nc3ncnn3c2NC2CCCC2)c(F)c1 [No 4] | – | 100 | – | – | – | – |
| Clc1nc2ncnn2c(NC2CCCC2)c1-c1ccccc1 [No 5] | – | 100 | – | – | – | – |
| CC(C)Nc1c(-c2ccc(Cl)cc2Cl)c(Cl)nc2ncnn12 [No 6] | 100 | 95 | 95 | – | 100 | – |
| Fc1ccccc1-c1c(Cl)nc2ncnn2c1N1CCCCCC1 [No 7] | 100 | 100 | 100 | 94 | 100 | – |
| Fc1cccc(F)c1-c1c(Cl)nc2ncnn2c1N1CCCCCC1 [No 8] | 100 | 100 | 100 | 100 | 100 | 100 |
| CC1CCN(c2c(-c3c(F)cc(F)cc3F)c(Cl)nc3ncnn23)CC1 [No 9] | 100 | 100 | 100 | 100 | 100 | 100 |
| CC1CCN(c2c(-c3c(F)cccc3Cl)c(Cl)nc3ncnn23)CC1 [No 10] | 100 | 100 | 100 | 100 | 100 | 100 |
| C[C@H](Nc1c(-c2c(F)cc(F)cc2F)c(Cl)nc2ncnn12)C(F)(F)F [No 11] | 100 | 100 | 100 | 100 | 100 | 100 |
